Laboratory results taken from ChEMBL document CHEMBL1130885, “A potent and selective inhibition of parainfluenza 1 (Sendai) virus by new 6-oxiranyl-, 6-methyloxiranyluracils, and 4(3H)-pyrimidinone derivatives” (1998).

Key:
[1] = system: MDCK; test: Antiviral activity against parainfluenza 1 (sendai) virus was determined in madin Darby canine kidney (MDCK)i cells; format: functional, Canis lupus familiaris; conditions: read-out: ED50 (the source's name)
[2] = species: Mus musculus; test: Inhibitory concentration required to inhibit proliferation in mouse myeloma cells; format: functional
[3] = system: MDCK; test: Minimum toxic concentration required to cause microscopically detectable alteration of confluent madin Darby canine kidney (MDCK)cell morphology; format: functional, Canis lupus familiaris

Row | Structure (SMILES) | EC50 ([1]; Canis lupus familiaris, MDCK) [µM] | CC50 ([2]; Mus musculus) [µM] | MTC [3] [µM] | EC50 [1] [µM] | CC50 [2] [µM]
1 | C[C@H]1O[C@@]1(C)Cc1cc(=O)n(C)c(=O)n1C | > 2 | 89 | >2 | – | –
2 | CCCOc1nc(CC23CCCCC2O3)cc(=O)n1C (configuration not stated) | 176 | > 352 | >352 | – | –
3 | Cn1c(OC2CCCCC2)nc(CC2(c3ccccc3)CO2)cc1=O (configuration not stated) | 147 | > 294 | 294 | – | –
4 | Cn1c(C2OC2c2ccccc2)cc(=O)n(C)c1=O (stereo in doubt; 6c) | – | – | 380 | 193 | > 380
5 | Cn1c(CC2(c3ccccc3)CO2)cc(=O)n(C)c1=O (configuration not stated) | 0.18 | 3.7 | 0.37 | – | –
6 | Cn1c(C2OC2(C)c2ccccc2)cc(=O)n(C)c1=O (configuration not stated) | 0.47 | 7.3 | >0.81 | – | –
7 | CCCOc1nc(CC2(c3ccccc3)CO2)cc(=O)n1C (configuration not stated) | 16.6 | > 30 | 330 | – | –
8 | C[C@@H]1O[C@@]1(C)Cc1cc(=O)n(C)c(=O)n1C | > 2 | 89 | >2 | – | –
9 | Cn1c(CC23CCCC2O3)cc(=O)n(C)c1=O (configuration not stated) | 0.42 | 8.4 | >0.84 | – | –
10 | Cn1c(CC2(C(C)(C)C)CO2)cc(=O)n(C)c1=O (configuration not stated) | 0.59 | 7.9 | >0.79 | – | –
11 | Cn1c(C2OC2c2ccccc2)cc(=O)n(C)c1=O (stereo in doubt; 6b) | – | – | >0.8 | 0.38 | 7.7
12 | Cn1c(CC23CCCCC2O3)cc(=O)n(C)c1=O (configuration not stated) | > 2 | 40 | >2 | – | –
13 | CC1OC1(C)Cc1cc(=O)n(C)c(OC2CCCCC2)n1 (configuration not stated) | 171 | > 342 | 342 | – | –
14 | Cn1c(CC2(C)CO2)cc(=O)n(C)c1=O (configuration not stated) | 0.24 | 4 | 0.48 | – | –
